Test results taken from patent US11344510B2, “Arylcyclohexylamine derivatives and their use in the treatment of psychiatric disorders” (Gilgamesh Pharmaceuticals, Inc., priority 2019, dated 2022).
Counter-ions that a name gives are not always drawn.

Experiments:
[1] = target: T1, serotonin transporter (SERT) (Homo sapiens, UniProt P31645); experiment: Fluorescent substrate uptake inhibition, SERT; type: cell-based; settings: for inhibition at 10 µM: HEK293 cells expressing SERT
T1 construct: expressed in transfected cells; host or cells: HEK293

[2] = target: T2, norepinephrine transporter (NET) (Homo sapiens, UniProt P23975); experiment: Fluorescent substrate uptake inhibition, NET; type: cell-based; settings: for inhibition at 10 µM: HEK293 cells expressing NET
T2 construct: expressed in transfected cells; host or cells: HEK293

[3] = HLM stability (High Activity); type: in vitro ADME; settings: both sexes, human, liver microsomes, pH 7.4, Condition 2 (High Activity), 1.0 mg protein/mL
Method in brief: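 Pooled male and female human liver microsomes, 1.0 mg protein/mL, in 100 mM PBS pH 7.4 with NADPH-regenerating system; compound 1 μM at 37° C, five time points over 60 min. Parent remaining by LC-MS/MS; kel, t1/2 and Clint from linear regression of ln(AUC) versus time.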

[4] = target: T3, vesicular monoamine transporter 2 (VMAT2) (Homo sapiens, UniProt Q05940); experiment: Fluorescent substrate uptake inhibition, VMAT2; type: cell-based; settings: for inhibition at 10 µM: transfected cells
T3 construct: expressed in transfected cells

[5] = target: MK-801 binding site of the N-methyl-D-aspartate receptor (NMDAR); experiment: NMDAR radioligand binding with [3H]MK-801, Method B; set-up: species or system Sprague Dawley rat; settings: for Ki: MK-801 site, Method B, male Sprague Dawley rat cortex, 5.0 nM [3H]MK-801, read-out: NMDAR Ki ± SEM
Method: Radioligand Binding—Method B. Affinity of the test compounds for NMDAR was determined in radioligand binding experiments with [^3H]MK-801 by WuXi AppTec (Hong Kong) Limited, under the conditions described in Table 13.

[6] = target: T4, dopamine transporter (DAT) (Homo sapiens, UniProt Q01959); experiment: Fluorescent substrate uptake inhibition, DAT; type: cell-based; settings: for inhibition at 10 µM: CHO cells expressing DAT
T4 construct: expressed in transfected cells; host or cells: CHO (uptake)

[7] = RLM stability (High Activity); type: in vitro ADME, Sprague Dawley rats; settings: for half-life at 1 μM / microsomal CLint at 1 μM: male, Sprague Dawley, rat, liver microsomes, pH 7.4, Condition 2 (High Activity), 1.0 mg protein/mL
Method: RLM Stability (High Activity). Pooled RLM from male Sprague Dawley rats (XenoTech R1000, lot #1910100) were used. Microsomal incubations were carried out in 96-well plates in 5 aliquots of 40 μL each (one for each time point). Liver microsomal incubation medium consisted of PBS (100 mM, pH 7.4), MgCl2 (3.3 mM), NADPH (3 mM), glucose-6-phosphate (5.3 mM), and glucose-6-phosphate dehydrogenase (0.67 units/mL), with 1.0 mg of liver microsomal protein per mL. Control incubations were performed by replacing the NADPH-cofactor system with PBS. Test compounds (1 μM, final solvent concentration 1.6%) were incubated with microsomes at 37° C., shaking at 100 rpm. Incubations were performed in duplicate. Five time points over 60 minutes were analyzed. The reactions were stopped by adding 9 volumes of 90% acetonitrile-water to incubation aliquots, followed by protein sedimentation by centrifugation at 5500 rpm for 3 minutes. Supernatants were analyzed for parent compound remaining using a fit-for-purpose liquid chromatography-tandem mass spectrometry (LC-MS/MS) method, with authentic samples of each analyte used for identity confirmation.
Data Analysis. The elimination constant (kel), half-life (t1/2) and intrinsic clearance (Clint) were determined in a plot of […] versus time, using linear regression analysis.

T3 sequence (Q05940 whole entry, species assumed): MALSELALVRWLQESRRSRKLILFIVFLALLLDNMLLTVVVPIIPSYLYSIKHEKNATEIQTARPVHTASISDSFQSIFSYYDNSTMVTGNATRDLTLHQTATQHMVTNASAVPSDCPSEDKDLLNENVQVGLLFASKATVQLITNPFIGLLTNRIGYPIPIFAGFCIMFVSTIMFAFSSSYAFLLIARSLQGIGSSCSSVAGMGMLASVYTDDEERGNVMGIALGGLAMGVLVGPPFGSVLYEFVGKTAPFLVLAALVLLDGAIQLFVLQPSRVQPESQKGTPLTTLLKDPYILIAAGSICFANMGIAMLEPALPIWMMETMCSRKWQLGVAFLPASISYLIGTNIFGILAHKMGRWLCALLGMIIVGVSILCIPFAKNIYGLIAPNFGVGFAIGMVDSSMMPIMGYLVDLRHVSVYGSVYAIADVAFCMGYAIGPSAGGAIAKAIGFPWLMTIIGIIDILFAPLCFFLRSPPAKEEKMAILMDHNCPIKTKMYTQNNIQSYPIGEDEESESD
T1 sequence (P31645 whole entry, species assumed): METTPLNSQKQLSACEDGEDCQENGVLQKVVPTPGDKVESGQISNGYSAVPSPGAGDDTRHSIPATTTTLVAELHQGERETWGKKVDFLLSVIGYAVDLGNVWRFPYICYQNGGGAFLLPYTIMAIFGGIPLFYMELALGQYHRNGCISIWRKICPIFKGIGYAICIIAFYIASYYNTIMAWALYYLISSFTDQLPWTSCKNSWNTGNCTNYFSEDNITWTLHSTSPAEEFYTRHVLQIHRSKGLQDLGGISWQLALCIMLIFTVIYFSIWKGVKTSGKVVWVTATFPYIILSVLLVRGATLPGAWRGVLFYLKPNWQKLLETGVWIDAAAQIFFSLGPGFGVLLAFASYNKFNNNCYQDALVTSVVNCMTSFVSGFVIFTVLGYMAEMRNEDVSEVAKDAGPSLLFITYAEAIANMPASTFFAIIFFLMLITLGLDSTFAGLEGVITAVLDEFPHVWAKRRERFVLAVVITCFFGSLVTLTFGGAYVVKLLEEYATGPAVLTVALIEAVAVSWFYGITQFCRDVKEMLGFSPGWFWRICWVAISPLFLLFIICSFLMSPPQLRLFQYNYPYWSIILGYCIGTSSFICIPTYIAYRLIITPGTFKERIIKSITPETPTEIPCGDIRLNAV
T2 sequence (P23975 whole entry, species assumed): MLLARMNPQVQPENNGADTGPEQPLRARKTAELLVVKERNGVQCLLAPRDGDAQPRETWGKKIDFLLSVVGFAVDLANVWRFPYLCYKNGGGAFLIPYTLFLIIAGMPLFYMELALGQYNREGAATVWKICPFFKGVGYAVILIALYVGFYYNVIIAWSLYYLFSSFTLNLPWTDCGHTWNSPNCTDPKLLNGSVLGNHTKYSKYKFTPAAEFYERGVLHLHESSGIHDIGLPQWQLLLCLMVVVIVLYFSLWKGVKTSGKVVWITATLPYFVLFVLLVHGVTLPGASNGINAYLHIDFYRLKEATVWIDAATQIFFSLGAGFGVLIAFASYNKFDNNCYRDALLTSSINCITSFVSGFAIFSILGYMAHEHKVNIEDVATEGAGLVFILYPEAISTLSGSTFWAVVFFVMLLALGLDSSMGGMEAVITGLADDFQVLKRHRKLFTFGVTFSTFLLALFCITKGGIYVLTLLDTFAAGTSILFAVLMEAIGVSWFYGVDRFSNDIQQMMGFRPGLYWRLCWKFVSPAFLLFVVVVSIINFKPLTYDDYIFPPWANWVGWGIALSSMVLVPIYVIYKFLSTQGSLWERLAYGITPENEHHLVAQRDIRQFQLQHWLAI
T4 sequence (Q01959 whole entry, species assumed): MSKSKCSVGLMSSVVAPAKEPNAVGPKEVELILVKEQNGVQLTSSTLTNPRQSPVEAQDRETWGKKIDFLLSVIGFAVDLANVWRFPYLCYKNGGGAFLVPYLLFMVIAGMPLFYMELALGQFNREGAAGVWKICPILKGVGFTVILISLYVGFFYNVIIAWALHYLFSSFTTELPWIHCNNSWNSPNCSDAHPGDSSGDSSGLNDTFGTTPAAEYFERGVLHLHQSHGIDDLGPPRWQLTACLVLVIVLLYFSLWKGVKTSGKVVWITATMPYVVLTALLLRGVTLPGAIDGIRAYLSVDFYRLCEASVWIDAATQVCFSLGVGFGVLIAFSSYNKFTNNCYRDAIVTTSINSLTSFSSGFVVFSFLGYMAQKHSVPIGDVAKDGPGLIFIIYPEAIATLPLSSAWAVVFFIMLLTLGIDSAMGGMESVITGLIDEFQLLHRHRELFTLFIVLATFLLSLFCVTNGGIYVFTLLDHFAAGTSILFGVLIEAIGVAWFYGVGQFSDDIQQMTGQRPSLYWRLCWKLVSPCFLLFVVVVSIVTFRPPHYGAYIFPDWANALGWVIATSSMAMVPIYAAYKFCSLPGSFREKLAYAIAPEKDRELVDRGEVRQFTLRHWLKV

CN[C@]1(c2ccccc2)CCCCC1=O [Compound 14S, (S)-2-(methylamino)-2-phenylcyclohexan-1-one]
IC50 [1]: 30.6 µM | inhibition at 10 µM [1]: 17% | inhibition at 10 µM [2]: 1.8% | half-life at 1 μM [3]: 6.18 h | microsomal CLint at 1 μM [3]: 2 µL/min/mg | inhibition at 10 µM [4]: 7.4% | Ki [5]: 0.69 µM | inhibition at 10 µM [6]: -4.5% | half-life at 1 μM [7]: 0.527 h | microsomal CLint at 1 μM [7]: 22 µL/min/mg

CN[C@@]1(c2ccccc2)CCCCC1=O [Compound 14R, (R)-2-(methylamino)-2-phenylcyclohexan-1-one]
IC50 [1]: 45.5 µM | inhibition at 10 µM [1]: 19.3% | inhibition at 10 µM [2]: 1.7% | half-life at 1 μM [3]: 9.77 h | microsomal CLint at 1 μM [3]: 1 µL/min/mg | inhibition at 10 µM [4]: 6.2% | NMDAR binding affinity, comparison in words ([5]; 14R vs rac-ketamine, (R)-ketamine, (S)-ketamine and 14S, R enantiomers vs S enantiomers or racemates): weaker NMDAR binding | Ki [5]: 4.5 µM | inhibition at 10 µM [6]: -4.5% | half-life at 1 μM [7]: 0.303 h | microsomal CLint at 1 μM [7]: 38 µL/min/mg

COCCNC1(c2ccccc2)CCCCC1=O (racemic) [Compound 29rac, 2-((2-methoxyethyl)amino)-2-phenylcyclohexan-1-one]
half-life at 1 μM [3]: 2.33 h | microsomal CLint at 1 μM [3]: 5 µL/min/mg | Ki [5]: 4.4 µM | half-life at 1 μM [7]: 0.293 h | microsomal CLint at 1 μM [7]: 39 µL/min/mg

Cc1ccccc1[C@@]1(N)CCCCC1=O [Compound 114S, (S)-2-amino-2-(o-tolyl)cyclohexan-1-one]
inhibition at 10 µM [1]: -4% | inhibition at 10 µM [2]: 10.4% | inhibition at 10 µM [4]: -15.9% | Ki [5]: 2.5 µM | inhibition at 10 µM [6]: -15.2%

O=C1CCCCC1(c1ccccc1)N1CCCC1 (racemic) [Compound 27rac, 2-phenyl-2-(pyrrolidin-1-yl)cyclohexan-1-one]
IC50 [1]: 0.45 µM | inhibition at 10 µM [1]: 88.6% | IC50 [2]: 4.9 µM | inhibition at 10 µM [2]: 40.8% | half-life at 1 μM [3]: 3.87 h | microsomal CLint at 1 μM [3]: 3 µL/min/mg | IC50 [4]: 11.2 µM | inhibition at 10 µM [4]: 60.4% | Ki [5]: 1.1 µM | IC50 [6]: 6.5 µM | inhibition at 10 µM [6]: 49.5%

CNC1(c2ccccc2)CCCCC1=O (racemic) [Compound 14rac, 2-(methylamino)-2-phenylcyclohexan-1-one hydrochloride]
half-life at 1 μM [3]: 6.12 h | microsomal CLint at 1 μM [3]: 2 µL/min/mg

[2H]C([2H])([2H])N[C@@]1(c2ccccc2)CCCCC1=O [Compound 88R, (R)-2-((methyl-d3)amino)-2-phenylcyclohexan-1-one]
inhibition at 10 µM [1]: 25.9% | inhibition at 10 µM [2]: 10.6% | half-life at 1 μM [3]: 2.92 h | microsomal CLint at 1 μM [3]: 4 µL/min/mg | inhibition at 10 µM [4]: 20.2% | Ki [5]: 3.4 µM | inhibition at 10 µM [6]: 7.9% | metabolic stability compared to non-deuterated counterparts 14R and 14S ([7]; High Activity): increased metabolic stability | half-life at 1 μM [7]: 0.66 h | microsomal CLint at 1 μM [7]: 18 µL/min/mg

O=C1CCCC[C@@]1(c1ccccc1)N1CCC1 [Compound 84S, (S)-2-(azetidin-1-yl)-2-phenyl-cyclohexan-1-one]
IC50 [1]: 0.94 µM | inhibition at 10 µM [1]: 91.9% | IC50 [2]: 29.7 µM | inhibition at 10 µM [2]: 34.9% | half-life at 1 μM [3]: 2.76 h | microsomal CLint at 1 μM [3]: 4 µL/min/mg | IC50 [4]: > 100 µM | inhibition at 10 µM [4]: 10.9% | Ki [5]: 1.3 µM | IC50 [6]: 19.5 µM | inhibition at 10 µM [6]: 32.2% | half-life at 1 μM [7]: 0.505 h | microsomal CLint at 1 μM [7]: 23 µL/min/mg

N[C@]1(c2ccccc2)CCCCC1=O [Compound 11S, (S)-2-amino-2-phenyl-cyclohexan-1-one]
inhibition at 10 µM [1]: -2.6% | inhibition at 10 µM [2]: 14.8% | half-life at 1 μM [3]: 3.25 h | microsomal CLint at 1 μM [3]: 4 µL/min/mg | inhibition at 10 µM [4]: -17.4% | Ki [5]: 1.2 µM | inhibition at 10 µM [6]: 10.1% | half-life at 1 μM [7]: 1.82 h | microsomal CLint at 1 μM [7]: 6 µL/min/mg

CNC1(c2ccccc2Cl)CCCCC1=O (racemic) [rac-ketamine, racemic ketamine, reference compound]
half-life at 1 μM [3]: 0.613 h | microsomal CLint at 1 μM [3]: 19 µL/min/mg | half-life at 1 μM [7]: 0.0767 h | microsomal CLint at 1 μM [7]: 151 µL/min/mg

CN[C@]1(c2cccc(F)c2)CCCCC1=O [Compound 19S, (5)-2-(3-fluorophenyl)-2-(methylamino)cyclohexan-1-one]
inhibition at 10 µM [1]: 20.6% | inhibition at 10 µM [2]: 10.3% | half-life at 1 μM [3]: 1.59 h | microsomal CLint at 1 μM [3]: 7 µL/min/mg | inhibition at 10 µM [4]: -0.87% | Ki [5]: 2.1 µM | inhibition at 10 µM [6]: 18.1% | half-life at 1 μM [7]: 0.313 h | microsomal CLint at 1 μM [7]: 37 µL/min/mg

Cc1ccccc1[C@]1(N)CCCCC1=O [Compound 114R, (R)-2-amino-2-(o-tolyl)cyclohexan-1-one]
inhibition at 10 µM [1]: 23.4% | inhibition at 10 µM [2]: 7.7% | inhibition at 10 µM [4]: -14% | Ki [5]: > 23 µM | inhibition at 10 µM [6]: 6.2%

N[C@@]1(c2ccccc2)CCCCC1=O [Compound 11R, (R)-2-amino-2-phenyl-cyclohexan-1-one]
inhibition at 10 µM [1]: 0.19% | inhibition at 10 µM [2]: 10.4% | half-life at 1 μM [3]: 3.31 h | microsomal CLint at 1 μM [3]: 3 µL/min/mg | inhibition at 10 µM [4]: 14.4% | Ki [5]: 9.4 µM | inhibition at 10 µM [6]: -11.8% | half-life at 1 μM [7]: 1.72 h | microsomal CLint at 1 μM [7]: 7 µL/min/mg

O=C1CCCC[C@]1(c1ccccc1)N1CCC1 [Compound 84R, (R)-2-(azetidin-1-yl)-2-phenyl-cyclohexan-1-one]
IC50 [1]: 0.8 µM | inhibition at 10 µM [1]: 75.2% | IC50 [2]: 15.4 µM | inhibition at 10 µM [2]: 29.1% | half-life at 1 μM [3]: 2.75 h | microsomal CLint at 1 μM [3]: 4 µL/min/mg | IC50 [4]: 98.2 µM | inhibition at 10 µM [4]: 14.1% | Ki [5]: 2.3 µM | IC50 [6]: 19.4 µM | inhibition at 10 µM [6]: 28.2% | half-life at 1 μM [7]: 0.363 h | microsomal CLint at 1 μM [7]: 32 µL/min/mg
